In US20240299294A1, “TARGETED DELIVERY OF EFFECTIVE THERAPEUTIC MEDICATIONS TO THE RESPIRATORY TRACT” (Amphastar Pharmaceuticals, Inc., priority 2020, published 2024):
Like-named read-outs stand apart in the source and are kept apart here.

Tests used:
[1] = Dose range and dose response study of HCQ for lung delivery (Example 9); settings: mouse, in vivo, 16 sprays
[2] = Estimation of HCQ concentration in alveolar lining fluid (ALF) (Example 11); settings: mouse, in vivo, 10 sprays
[3] = Cell viability (MTT) assay, CC50, Study APS002-1; assay type: cell-based; settings: African green monkey, Vero E6-TMPRSS2 cells
Protocol: In the antiviral cell assay, Vero E6-TMPRSS2 cells were seeded into 96 well plates and grown to 80-90% confluency. Compounds were prepared using an 8-point, half-log (˜3-fold) dilution starting at 100 μM. Vehicle (Placebo) and positive control (Remdesivir) wells were included to control for any influence on cell viability. After one hour, compounds were removed and virus was added at a single concentration (100× Median Tissue Culture Infectious Dose (TCID50)), together with equivalent serial dilutions of test compound. Following infection/treatment, cells were incubated for a further hour. After infection, virus/treatment was removed and an overlay medium was added to the cells, together with equivalent serial dilutions of test compound. Cells were visually inspected daily for the appearance of any cytopathic effect (“CPE”). A cell viability (MTT) assay was performed once CPE was complete.

in vivo [4] = settings: mouse
[5] = in vivo
[6] = cited from earlier work
mice = experiment: 5-day repeated-dose local and systemic toxicity study of HCQ inhalation (Example 12); assay type: in vivo
Protocol: A total of 200 mice were used, in which 40 mice (male:female=1:1) were assigned to each study arm.
Mice were dosed four sessions a day for 5 days, with 3 hours interval between two consecutive treatment sessions. Each session was a 6-minute nose-only inhalation treatment after spraying the designated articles (4, 8 or 16 sprays) into the 21.5 L breathing tank.
After the treatment, 24 mice (male:female=1:1) were sacrificed on Day 6 (or Day-1 post completion of treatment, PCT Day-1) for acute toxicity evaluation and 16 mice (male:female=1:1) were sacrificed on Day 19 (PCT Day-14) for recovery evaluation.
Standard local toxicity evaluation items included: (1) general safety including in-life daily observation and body weight measurement; (2) gross macroscopic observation and organ weight measurement; (3) clinical pathology including hematology and blood chemistry tests; and (4) microscopic histopathological examination.

in vivo [7] = settings: mouse; remark: listed apart in the source
Protocol: For the single-dose study, 48 mice were treated with the highest dose level (16 sprays) of Formulation 11. Twelve time points were measured: baseline (within one hour before dosing), 5 min, 15 min, 30 min, 1 h, 2 h, 3 h, 4 h, 6 h, 9 h, 24 h and 48 h post dosing. Each animal was sampled twice at two different time points and four mice per gender were used at each time point.

in vivo [8] = experiment: in vivo; design: species or system mice; settings: mouse
Protocol: The breathing tank 400 is a specially designed stainless steel breathing tank, which is used for mice to breathe in aerosolized formulations of the medications described earlier in the Examples. At the start of each treatment session, a specific number of sprays of a medication formulation were sprayed into the pre-cleaned tank. To ensure consistent concentration of test article, a stirring fan installed inside the tank was started at a speed of 400 rpm before the first spray of the test articles (such as, the medications). Thirty seconds after the last spray, eight mice were mounted to the inhalation chamber to breathe in aerosolized formulations of the medications from the breathing tank for a specified duration. Animals were then taken off the breathing tank (defined as the “0” time point post dosing).
The purpose of the study is to evaluate the lung delivery characteristics of single dose HCQ inhalation in a mouse model. […] Thirty seconds after the last spray (t=0 minute), eight mice were mounted to the inhalation chamber to breathe the medication aerosol from the breathing tank for 10 minutes.
Mice were euthanized and mice lung samples were collected and homogenated at eight time points of 10′, 30′, 45′, 1 h, 2 h, 3 h, 4 h and 6 h after treatment. Four mice were used at each time point and in total 32 mice were studied.

SARS-CoV-2 virus = experiment: microbe, parasite or virus in culture; assay type: cell-based; settings: Severe acute respiratory syndrome coronavirus 2, VeroE6/TMPRSS2

Structure (SMILES): CCN(CCO)CCCC(C)Nc1ccnc2cc(Cl)ccc12 (stereo not drawn) [HCQ, Hydroxychloroquine]
- concentration at 0.083 h ([1]; female): 8820 ng/g
- concentration at 0.25 h ([1]; female): 4510 ng/g
- concentration at 0.5 h ([1]; female): 3560 ng/g
- concentration at 1 h ([1]; female): 4040 ng/g
- concentration at 3 h ([1]; female): 3250 ng/g
- concentration at 24 h ([1]; female): 339 ng/g
- concentration at 0.083 h ([1]; male): 9510 ng/g
- concentration at 0.25 h ([1]; male): 4740 ng/g
- concentration at 0.5 h ([1]; male): 4680 ng/g
- concentration at 1 h ([1]; male): 3660 ng/g
- concentration at 3 h ([1]; male): 3300 ng/g
- concentration at 24 h ([1]; male): 277 ng/g
- concentration at 10 min [2]: 476 µM
- concentration at 6 h [2]: 188 µM
- CC50 [3]: > 100 µM
- half-life (in vivo [4]; both): 6 to 8 h
- half-life (in vivo [4]): 4.6 to 7.8 h
- time the delivered medication can be detected in the mouse lungs [5]: no less than 24 h
- half-life ([6]; HCQ oral tablet delivery): 123.5 days
- share of oral tablet dose distributed to the plasma and ultimately reaching the lungs and alveoli ([6]; in vivo, po): about 0.07%
- local toxicity, nasal turbinates and larynx (mice; Formulation 11, PCT-Day 1): low incidence of minor changes
- histopathological finding in the thymus (mice; mouse, in vivo): minimal to mild tingible body macrophages
- local toxicity, histopathological examination of six organs (mice; mouse, in vivo): No dose related abnormalities
- half-life (in vivo [7]; both): ≥ 4 h
- Kp (in vivo [7]; both, in vivo, 16 sprays): ≥ 25
- Kp at 0.083 h (in vivo [7]; female, in vivo, 16 sprays): 66.3
- Kp at 0.25 h (in vivo [7]; female, in vivo, 16 sprays): 50.6
- Kp at 0.5 h (in vivo [7]; female, in vivo, 16 sprays): 38
- Kp at 1 h (in vivo [7]; female, in vivo, 16 sprays): 100
- Kp at 3 h (in vivo [7]; female, in vivo, 16 sprays): 193
- Kp at 24 h (in vivo [7]; female, in vivo, 16 sprays): 26.9
- concentration at 0.083 h (in vivo [7]; female, in vivo, 16 sprays): 133 ng/mL
- concentration at 0.25 h (in vivo [7]; female, in vivo, 16 sprays): 89.2 ng/mL
- concentration at 0.5 h (in vivo [7]; female, in vivo, 16 sprays): 93.6 ng/mL
- concentration at 1 h (in vivo [7]; female, in vivo, 16 sprays): 40.2 ng/mL
- concentration at 3 h (in vivo [7]; female, in vivo, 16 sprays): 16.8 ng/mL
- concentration at 24 h (in vivo [7]; female, in vivo, 16 sprays): 12.6 ng/mL
- Kp at 0.083 h (in vivo [7]; male, in vivo, 16 sprays): 58.4
- Kp at 0.25 h (in vivo [7]; male, in vivo, 16 sprays): 51.5
- Kp at 0.5 h (in vivo [7]; male, in vivo, 16 sprays): 85.2
- Kp at 1 h (in vivo [7]; male, in vivo, 16 sprays): 90.9
- Kp at 3 h (in vivo [7]; male, in vivo, 16 sprays): 250
- Kp at 24 h (in vivo [7]; male, in vivo, 16 sprays): 56.5
- concentration at 0.083 h (in vivo [7]; male, in vivo, 16 sprays): 163 ng/mL
- concentration at 0.25 h (in vivo [7]; male, in vivo, 16 sprays): 92 ng/mL
- concentration at 0.5 h (in vivo [7]; male, in vivo, 16 sprays): 55 ng/mL
- concentration at 1 h (in vivo [7]; male, in vivo, 16 sprays): 40.2 ng/mL
- concentration at 3 h (in vivo [7]; male, in vivo, 16 sprays): 13.2 ng/mL
- concentration at 24 h (in vivo [7]; male, in vivo, 16 sprays): 4.9 ng/mL
- appearance of mice after the treatment (in vivo [8]): appeared healthy and normal
- half-life (in vivo [8]; inhaled or intranasal): 4.6 h
- EC50 (SARS-CoV-2 virus; Vero E6-TMPRSS2 cells, virus 100× TCID50, read-out: EC50): 11.3 µM

Structure (SMILES): CCC(CC)COC(=O)[C@H](C)N[P@](=O)(OC[C@H]1O[C@@](C#N)(c2ccc3c(N)ncnn23)[C@H](O)[C@@H]1O)Oc1ccccc1 [Remdesivir]
- CC50 [3]: > 20 µM
- EC50 (SARS-CoV-2 virus): 2.35 µM
